Test results reported in US20200331925A1, “HETEROCYCLIC COMPOUNDS FOR THE TREATMENT OF ABNORMAL CELLULAR PROLIFERATION” (G1 Therapeutics, Inc., priority 2018, published 2020).

Tests used:
Type in all cases: biochemical
CDK7/Cyclin H = CDK7/Cyclin H (Homo sapiens, UniProt P50613); experiment: CDK7/Cyclin H kinase assay (Nanosyn, Caliper microfluidic); conditions: 12-point dose-response, ATP at Km (50 μM), 17 hr
Experimental: (§1) Selected compounds disclosed herein were tested in kinase assays by Nanosyn (Santa Clara, Calif.) to determine their inhibitory effect on selected CDKs. The assays were performed using microfluidic kinase detection technology (Caliper Assay Platform). The compounds were tested in 12-point dose-response format in singlicate at Kmfor ATP. Phosphoacceptor substrate peptide concentration used was 1 μM for all assays and Staurosporine was used as the reference compound for all assays. Specifics of each assay are as described below: CDK7/Cyclin H: Enzyme concentration: 10 nM; ATP concentration: 50 μM; Incubation time: 17 hr.

CDK2/Cyclin A = CDK2/Cyclin A (Homo sapiens, UniProt P24941); experiment: CDK2/Cyclin A kinase assay (Nanosyn, Caliper microfluidic); conditions: 12-point dose-response, ATP at Km (50 μM), 3 hr
Experimental: as §1, with “CDK2/Cyclin A:” for “CDK7/Cyclin H:”, “0.1” for “10”, “3” for “17”

CDK2/Cyclin E = CDK2/Cyclin E (Homo sapiens, UniProt P24941); experiment: CDK2/Cyclin E kinase assay (Nanosyn, Caliper microfluidic); conditions: 12-point dose-response, ATP at Km (100 μM), 3 hr
Experimental: as §1, with “CDK2/Cyclin E:” for “CDK7/Cyclin H:”, “0.15” for “10”, “100” for “50”, “3” for “17”

CDK9/Cyclin T = CDK9/Cyclin T (Homo sapiens, UniProt P50750); experiment: CDK9/Cyclin T kinase assay (Nanosyn, Caliper microfluidic); conditions: 12-point dose-response, ATP at Km (10 μM), 17 hr
Sequence of CDK9/Cyclin T (P50750 whole entry): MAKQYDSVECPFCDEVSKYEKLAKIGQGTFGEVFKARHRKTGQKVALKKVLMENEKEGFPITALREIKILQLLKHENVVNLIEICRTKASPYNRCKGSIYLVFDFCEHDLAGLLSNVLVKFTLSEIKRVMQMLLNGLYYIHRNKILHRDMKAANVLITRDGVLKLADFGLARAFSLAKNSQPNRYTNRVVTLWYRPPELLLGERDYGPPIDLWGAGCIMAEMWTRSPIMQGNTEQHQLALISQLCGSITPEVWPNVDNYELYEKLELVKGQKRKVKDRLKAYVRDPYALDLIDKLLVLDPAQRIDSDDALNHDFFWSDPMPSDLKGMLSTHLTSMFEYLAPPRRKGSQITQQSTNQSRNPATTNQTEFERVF
Sequence of CDK9/Cyclin T (O60563 whole entry partner): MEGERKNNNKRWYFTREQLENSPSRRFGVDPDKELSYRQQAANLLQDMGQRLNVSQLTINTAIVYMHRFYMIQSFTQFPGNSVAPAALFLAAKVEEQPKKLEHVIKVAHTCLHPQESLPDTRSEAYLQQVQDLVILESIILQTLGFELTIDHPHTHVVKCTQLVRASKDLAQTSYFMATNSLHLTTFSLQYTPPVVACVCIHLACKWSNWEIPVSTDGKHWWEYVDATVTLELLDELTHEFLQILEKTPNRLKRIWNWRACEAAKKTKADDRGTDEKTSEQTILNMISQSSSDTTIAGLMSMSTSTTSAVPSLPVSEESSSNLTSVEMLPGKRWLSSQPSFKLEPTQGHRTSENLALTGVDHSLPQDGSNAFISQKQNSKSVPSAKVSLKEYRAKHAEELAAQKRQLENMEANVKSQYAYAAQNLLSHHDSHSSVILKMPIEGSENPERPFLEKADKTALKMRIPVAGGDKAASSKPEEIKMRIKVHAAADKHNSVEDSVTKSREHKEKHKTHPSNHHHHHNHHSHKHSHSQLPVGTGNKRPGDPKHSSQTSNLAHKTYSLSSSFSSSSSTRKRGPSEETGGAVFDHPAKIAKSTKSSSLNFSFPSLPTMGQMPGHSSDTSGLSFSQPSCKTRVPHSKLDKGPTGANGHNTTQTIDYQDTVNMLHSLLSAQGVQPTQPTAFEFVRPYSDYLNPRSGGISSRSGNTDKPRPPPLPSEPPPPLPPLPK
Experimental: as §1, with “[…]:” for “H:”, “5” for “10”, “10” for “50”

CDK3/Cyclin E = CDK3/Cyclin E (Homo sapiens, UniProt Q00526); experiment: CDK3/Cyclin E kinase assay (Nanosyn, Caliper microfluidic); conditions: 12-point dose-response, ATP at Km (400 μM), 3 hr
Experimental: as §1, with “CDK3/Cyclin E:” for “CDK7/Cyclin H:”, “1” for “10”, “400” for “50”, “3” for “17”

CDK1/Cyclin B1 = CDK1/Cyclin B1 (Homo sapiens, UniProt P06493); experiment: CDK1/Cyclin B1 kinase assay (Nanosyn, Caliper microfluidic); conditions: 12-point dose-response, ATP at Km (40 μM), 3 hr
Sequence of CDK1/Cyclin B1 (P06493 whole entry): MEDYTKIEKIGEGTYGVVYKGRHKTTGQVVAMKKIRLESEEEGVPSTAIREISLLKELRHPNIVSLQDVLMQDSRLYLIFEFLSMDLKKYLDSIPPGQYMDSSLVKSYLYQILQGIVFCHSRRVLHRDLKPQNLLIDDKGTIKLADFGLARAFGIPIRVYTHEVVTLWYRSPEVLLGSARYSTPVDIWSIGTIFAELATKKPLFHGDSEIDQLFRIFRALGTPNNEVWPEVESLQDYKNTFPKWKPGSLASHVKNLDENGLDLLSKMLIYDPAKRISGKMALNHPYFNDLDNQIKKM
Sequence of CDK1/Cyclin B1 (P14635 whole entry partner): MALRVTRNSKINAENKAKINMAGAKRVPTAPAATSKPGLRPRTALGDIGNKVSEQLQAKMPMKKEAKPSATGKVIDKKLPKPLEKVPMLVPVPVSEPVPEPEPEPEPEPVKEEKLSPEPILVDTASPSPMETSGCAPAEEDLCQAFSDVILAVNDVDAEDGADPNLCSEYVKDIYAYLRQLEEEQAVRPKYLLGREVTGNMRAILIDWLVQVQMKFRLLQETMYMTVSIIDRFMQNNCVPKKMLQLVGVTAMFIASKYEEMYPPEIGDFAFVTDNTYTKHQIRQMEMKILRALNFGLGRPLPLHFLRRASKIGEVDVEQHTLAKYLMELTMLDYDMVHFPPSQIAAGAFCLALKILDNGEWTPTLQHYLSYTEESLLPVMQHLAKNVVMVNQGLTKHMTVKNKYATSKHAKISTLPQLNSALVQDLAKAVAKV
Experimental: as §1, with “CDK1/Cyclin B1:” for “CDK7/Cyclin H:”, “0.08” for “10”, “40” for “50”, “3” for “17”

CDK5/p35 = CDK5/p35 (Homo sapiens, UniProt Q00535); experiment: CDK5/p35 kinase assay (Nanosyn, Caliper microfluidic); conditions: 12-point dose-response, ATP at Km (20 μM), 3 hr
Experimental: as §1, with “CDK5/p35:” for “CDK7/Cyclin H:”, “0.05” for “10”, “20” for “50”, “3” for “17”

CDK5/p25 = CDK5/p25 (Homo sapiens, UniProt Q00535); experiment: CDK5/p25 kinase assay (Nanosyn, Caliper microfluidic); conditions: 12-point dose-response, ATP at Km (20 μM), 3 hr
Sequence of CDK5/p25 (Q00535 whole entry): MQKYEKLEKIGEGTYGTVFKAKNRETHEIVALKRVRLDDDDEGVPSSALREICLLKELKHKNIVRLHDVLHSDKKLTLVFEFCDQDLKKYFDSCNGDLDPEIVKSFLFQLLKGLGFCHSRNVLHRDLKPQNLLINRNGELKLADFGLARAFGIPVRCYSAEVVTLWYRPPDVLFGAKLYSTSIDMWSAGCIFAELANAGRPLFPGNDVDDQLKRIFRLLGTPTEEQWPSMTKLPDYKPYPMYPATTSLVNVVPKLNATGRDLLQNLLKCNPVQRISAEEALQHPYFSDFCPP
Sequence of CDK5/p25 (Q15078 99-307 partner limits assumed): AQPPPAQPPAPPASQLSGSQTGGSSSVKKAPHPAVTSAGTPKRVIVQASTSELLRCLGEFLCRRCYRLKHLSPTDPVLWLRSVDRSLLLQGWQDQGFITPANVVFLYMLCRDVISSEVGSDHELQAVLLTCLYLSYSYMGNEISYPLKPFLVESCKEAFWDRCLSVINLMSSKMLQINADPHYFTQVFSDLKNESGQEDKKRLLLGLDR
Experimental: as §1, with “CDK5/p25:” for “CDK7/Cyclin H:”, “0.1” for “10”, “20” for “50”, “3” for “17”

CDK6/Cyclin D3 = CDK6/Cyclin D3 (Homo sapiens, UniProt Q00534); experiment: CDK6/Cyclin D3 kinase assay (Nanosyn, Caliper microfluidic); conditions: 12-point dose-response, ATP at Km (300 μM), 3 hr
Sequence of CDK6/Cyclin D3 (Q00534 whole entry): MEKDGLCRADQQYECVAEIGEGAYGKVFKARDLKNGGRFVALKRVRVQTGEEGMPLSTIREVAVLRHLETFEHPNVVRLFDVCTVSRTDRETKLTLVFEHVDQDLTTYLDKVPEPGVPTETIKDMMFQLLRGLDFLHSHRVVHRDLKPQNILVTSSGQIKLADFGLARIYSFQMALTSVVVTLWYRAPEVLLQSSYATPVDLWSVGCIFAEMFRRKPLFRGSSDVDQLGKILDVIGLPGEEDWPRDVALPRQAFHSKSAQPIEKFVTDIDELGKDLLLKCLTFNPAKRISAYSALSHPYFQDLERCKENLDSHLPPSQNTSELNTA
Sequence of CDK6/Cyclin D3 (P30281 whole entry partner): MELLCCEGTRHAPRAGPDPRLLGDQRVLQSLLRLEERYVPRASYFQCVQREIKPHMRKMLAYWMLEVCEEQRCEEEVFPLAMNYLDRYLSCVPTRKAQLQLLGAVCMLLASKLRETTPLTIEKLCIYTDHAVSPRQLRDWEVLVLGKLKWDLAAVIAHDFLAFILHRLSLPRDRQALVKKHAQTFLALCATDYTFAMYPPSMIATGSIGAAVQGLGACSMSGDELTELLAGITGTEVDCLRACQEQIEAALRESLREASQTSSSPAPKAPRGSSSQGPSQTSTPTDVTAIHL
Experimental: as §1, with “CDK6/Cyclin D3:” for “CDK7/Cyclin H:”, “2” for “10”, “300” for “50”, “3” for “17”

CDK4/Cyclin D1 = CDK4/Cyclin D1 (Homo sapiens, UniProt P11802); experiment: CDK4/Cyclin D1 kinase assay (Nanosyn, Caliper microfluidic); conditions: 12-point dose-response, ATP at Km (200 μM), 3 hr
Sequence of CDK4/Cyclin D1 (P11802 whole entry): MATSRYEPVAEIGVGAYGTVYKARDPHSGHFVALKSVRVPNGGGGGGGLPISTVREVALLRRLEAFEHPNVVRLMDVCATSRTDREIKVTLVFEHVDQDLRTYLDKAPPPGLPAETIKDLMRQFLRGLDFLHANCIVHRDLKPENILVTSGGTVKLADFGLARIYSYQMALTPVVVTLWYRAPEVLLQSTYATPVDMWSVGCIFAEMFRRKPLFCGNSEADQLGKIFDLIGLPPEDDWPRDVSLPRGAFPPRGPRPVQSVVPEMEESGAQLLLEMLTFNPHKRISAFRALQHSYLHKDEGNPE
Sequence of CDK4/Cyclin D1 (P24385 whole entry partner): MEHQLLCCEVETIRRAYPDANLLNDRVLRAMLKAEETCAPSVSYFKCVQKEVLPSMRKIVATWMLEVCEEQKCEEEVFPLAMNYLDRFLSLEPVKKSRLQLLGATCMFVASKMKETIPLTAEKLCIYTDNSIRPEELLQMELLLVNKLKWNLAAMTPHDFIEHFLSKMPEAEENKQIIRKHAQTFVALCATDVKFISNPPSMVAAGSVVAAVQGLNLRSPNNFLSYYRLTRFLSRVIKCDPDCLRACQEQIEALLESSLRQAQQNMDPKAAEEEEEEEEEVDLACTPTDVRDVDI
Experimental: as §1, with “CDK4/Cyclin D1:” for “CDK7/Cyclin H:”, “1” for “10”, “200” for “50”, “3” for “17”

Sequence of CDK7/Cyclin H (P50613 whole entry): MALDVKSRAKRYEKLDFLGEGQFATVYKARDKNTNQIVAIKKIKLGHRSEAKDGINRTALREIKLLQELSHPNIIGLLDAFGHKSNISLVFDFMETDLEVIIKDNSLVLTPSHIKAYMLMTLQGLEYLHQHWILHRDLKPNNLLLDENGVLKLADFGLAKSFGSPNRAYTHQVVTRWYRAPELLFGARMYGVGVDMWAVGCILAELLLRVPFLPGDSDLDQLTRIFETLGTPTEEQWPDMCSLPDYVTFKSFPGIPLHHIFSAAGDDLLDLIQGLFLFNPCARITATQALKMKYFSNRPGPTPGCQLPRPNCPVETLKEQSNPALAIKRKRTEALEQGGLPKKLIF
Sequence of CDK7/Cyclin H (P51946 whole entry partner): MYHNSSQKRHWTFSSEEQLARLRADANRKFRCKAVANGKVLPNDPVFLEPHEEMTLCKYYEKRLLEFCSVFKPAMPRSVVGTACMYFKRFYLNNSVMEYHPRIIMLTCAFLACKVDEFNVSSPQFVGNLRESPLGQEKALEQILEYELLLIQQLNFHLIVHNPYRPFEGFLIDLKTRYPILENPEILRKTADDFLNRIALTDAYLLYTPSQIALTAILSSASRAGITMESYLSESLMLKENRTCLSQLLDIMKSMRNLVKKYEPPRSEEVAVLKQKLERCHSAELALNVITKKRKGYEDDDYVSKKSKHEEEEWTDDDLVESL
Sequence of CDK7/Cyclin H (P51948 whole entry partner): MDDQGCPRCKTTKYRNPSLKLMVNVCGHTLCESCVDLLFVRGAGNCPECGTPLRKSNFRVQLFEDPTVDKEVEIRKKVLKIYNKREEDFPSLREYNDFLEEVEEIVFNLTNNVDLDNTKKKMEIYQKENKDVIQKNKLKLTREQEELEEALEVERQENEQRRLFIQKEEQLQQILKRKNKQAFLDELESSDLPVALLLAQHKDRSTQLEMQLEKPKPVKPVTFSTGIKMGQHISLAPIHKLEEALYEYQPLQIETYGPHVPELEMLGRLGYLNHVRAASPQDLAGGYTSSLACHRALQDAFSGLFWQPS

| SMILES | IC50 (CDK7/Cyclin H) | IC50 (CDK2/Cyclin A) | IC50 (CDK2/Cyclin E) | IC50 (CDK9/Cyclin T; Table 5) | IC50 (CDK3/Cyclin E) | IC50 (CDK1/Cyclin B1) | IC50 (CDK5/p35) | IC50 (CDK5/p25) | IC50 (CDK6/Cyclin D3) | IC50 (CDK4/Cyclin D1; Table 4) | IC50 (CDK4/Cyclin D1; Table 6) | IC50 (CDK9/Cyclin T; Table 6) |
| --- | --- | --- | --- | --- | --- | --- | --- | --- | --- | --- | --- | --- |
| O=C1NCC2(CCCCC2)n2c1cc1cnc(N[C@@H]3CCCN[C@@H]3c3ccccc3)nc12 [Compound 9, 2′-(((2R,3R)-2-phenylpiperidin-3-yl)amino)-7′,8′-dihydro-6′H-spiro[cyclohexane-1,9′-pyrazino[1′,2′:1,5]pyrrolo[2,3-d]pyrimidin]-6'-one] | 20 µM | 71 µM | > 100 µM | 1600 nM | > 100 µM | 82 µM | > 100 µM | > 100 µM | 12 µM | 120 nM | – | – |
| CN(C)[C@H]1CC[C@H](Nc2ncc3cc4n(c3n2)C2(CCCCC2)CNC4=O)CC1 [Compound 45, 2′-(((1,4-trans)-4-(dimethylamino)cyclohexyl)amino)-7′,8′-dihydro-6′H-spiro[cyclohexane-1,9′-pyrazino[1′,2′:1,5]pyrrolo[2,3-d]pyrimidin]-6′-one] | 0.086 µM | 0.14 µM | 0.26 µM | 3.3 nM | 0.24 µM | 0.27 µM | 0.31 µM | 0.36 µM | 0.047 µM | 11 nM | – | – |
| O=C1NCC2(CCCCC2)n2c1cc1cnc(NC(=O)[C@H]3CNCCO3)nc12 [Compound 35, (R)-N-(6′-oxo-7′,8′-dihydro-6′H-spiro[cyclohexane-1,9′-pyrazino[1′,2′:1,5]pyrrolo[2,3-d]pyrimidin]-2′-yl)morpholine-2-carboxamide] | 61 µM | 10 µM | 26 µM | 88 nM | 54 µM | 31 µM | 40 µM | 43 µM | > 100 µM | 27000 nM | – | – |
| O=C(C[C@H]1CCCN1)Nc1ncc2cc3n(c2n1)C1(CCCCC1)CNC3=O [Compound 37, (R)-N-(6′-oxo-7′,8′-dihydro-6′H-spiro[cyclohexane-1,9′-pyrazino[1′,2′:1,5]pyrrolo[2,3-d]pyrimidin]-2′-yl)-2-(pyrrolidin-2-yl)acetamide] | 17 µM | 16 µM | 29 µM | 120 nM | 38 µM | 27 µM | 28 µM | 31 µM | 14 µM | 6300 nM | – | – |
| O=C1NCC2(CCCCC2)n2c1cc1cnc(N[C@H]3CC[C@H](N4CCC(C(F)(F)F)CC4)CC3)nc12 [Compound 56, 2′-(((1r,4r)-4-(4-(trifluoromethyl)piperidin-1-yl)cyclohexyl)amino)-7′,8′-dihydro-6′H-spiro[cyclohexane-1,9′-pyrazino[1′,2′:1,5]pyrrolo[2,3-d]pyrimidin]-6′-one] | – | – | – | – | – | – | – | – | – | – | 27 nM | 4 nM |
| CC(C)(C)N1CCN([C@H]2CC[C@H](Nc3ncc4cc5n(c4n3)C3(CCCCC3)CNC5=O)CC2)CC1 [Compound 57, 2′-(((1r,4r)-4-(4-(tert-butyl)piperazin-1-yl)cyclohexyl)amino)-7′,8′-dihydro-6′H-spiro[cyclohexane-1,9′-pyrazino[1′,2′:1,5]pyrrolo[2,3-d]pyrimidin]-6′-one] | – | – | – | – | – | – | – | – | – | – | 5 nM | 3 nM |

More lines, now with the values ahead:

| IC50 (CDK7/Cyclin H) | IC50 (CDK2/Cyclin A) | IC50 (CDK2/Cyclin E) | IC50 (CDK9/Cyclin T; Table 5) | IC50 (CDK3/Cyclin E) | IC50 (CDK1/Cyclin B1) | IC50 (CDK5/p35) | IC50 (CDK5/p25) | IC50 (CDK6/Cyclin D3) | IC50 (CDK4/Cyclin D1; Table 4) | IC50 (CDK4/Cyclin D1; Table 6) | IC50 (CDK9/Cyclin T; Table 6) | SMILES |
| --- | --- | --- | --- | --- | --- | --- | --- | --- | --- | --- | --- | --- |
| – | – | – | – | – | – | – | – | – | – | 20 nM | – | O=C1NCC2(CCCCC2)n2c1cc1cnc(N[C@H]3CC[C@H](N4CCN(C(=O)C5CC5)CC4)CC3)nc12 [Compound 62, 2′-(((1r,4r)-4-(4-(cyclopropanecarbonyl)piperazin-1-yl)cyclohexyl)amino)-7′,8′-dihydro-6′H-spiro[cyclohexane-1,9′-pyrazino[1′,2′:1,5]pyrrolo[2,3-d]pyrimidin]-6′-one] |
| – | – | – | – | – | – | – | – | – | – | 4 nM | 2 nM | O=C1NCC2(CCCCC2)n2c1cc1cnc(N[C@H]3CC[C@H](N4CCN(C5CCCC5)CC4)CC3)nc12 [Compound 59, 2′-(((1r,4r)-4-(4-cyclopentylpiperazin-1-yl)cyclohexyl)amino)-7′,8′-dihydro-6′H-spiro[cyclohexane-1,9′-pyrazino[1′,2′:1,5]pyrrolo[2,3-d]pyrimidin]-6′-one] |
| – | – | – | – | – | – | – | – | – | – | 13 nM | – | O=C1NCC2(CCCCC2)n2c1cc1cnc(N[C@H]3CC[C@H](N4CCN(CC5CCCCC5)CC4)CC3)nc12 [Compound 61, 2′-(((1r,4r)-4-(4-(cyclohexylmethyl)piperazin-1-yl)cyclohexyl)amino)-7′,8′-dihydro-6′H-spiro[cyclohexane-1,9′-pyrazino[1′,2′:1,5]pyrrolo[2,3-d]pyrimidin]-6′-one] |
| – | – | – | – | – | – | – | – | – | – | 13 nM | 3 nM | O=C1NCC2(CCCCC2)n2c1cc1cnc(N[C@H]3CC[C@H](N4CCN(c5ccc(F)cc5)CC4)CC3)nc12 [Compound 60, 2′-(((1r,4r)-4-(4-(4-fluorophenyl)piperazin-1-yl)cyclohexyl)amino)-7′,8′-dihydro-6′H-spiro[cyclohexane-1,9′-pyrazino[1′,2′:1,5]pyrrolo[2,3-d]pyrimidin]-6′-one] |
| – | – | – | – | – | – | – | – | – | – | 33 nM | – | O=C1NCC2(CCCCC2)n2c1cc1cnc(N[C@H]3CC[C@H](N4CCN(C5CC5)CC4)CC3)nc12 [Compound 58, 2′-(((1r,4r)-4-(4-cyclopropylpiperazin-1-yl)cyclohexyl)amino)-7′,8′-dihydro-6′H-spiro[cyclohexane-1,9′-pyrazino[1′,2′:1,5]pyrrolo[2,3-d]pyrimidin]-6′-one] |
